Assays:
HDAC1 enzyme = molecular target: T1, HDAC1 enzyme (Homo sapiens, UniProt Q13547); assay: HDAC1 enzyme inhibitory assay (HDAC-Glo I/II Assay kit); type: biochemical; conditions: 1 μM test compound; for inhibition at 1 µM: read-out: HDAC1 inhibitory rate (%) (1 μM)
T1 construct: prepared by transducing full length HDAC1 and HDAC6 genes into Sf-9 insect cells; GST; purchased SignalChem; host or cells: Sf-9 insect cells
Procedure, shortened: (§1)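 Relative activity was calculated from luminescence, with wells lacking enzyme defined as 100% inhibition. The enzymes were full-length HDAC1 or HDAC6 from Sf-9 cells, preincubated with test compound for 60 min before a 20-min substrate-developer reaction at room temperature.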

HDAC6 enzyme = molecular target: T2, HDAC6 enzyme (Homo sapiens, UniProt Q9UBN7); assay: HDAC6 enzyme inhibitory assay (HDAC-Glo I/II Assay kit); type: biochemical; conditions: 1 μM test compound; for inhibition at 1 µM: read-out: HDAC6 inhibitory rate (%) (1 μM)
T2 construct: prepared by transducing full length HDAC1 and HDAC6 genes into Sf-9 insect cells; GST; purchased SignalChem; host or cells: Sf-9 insect cells
T2 sequence (Q9UBN7 1-1215): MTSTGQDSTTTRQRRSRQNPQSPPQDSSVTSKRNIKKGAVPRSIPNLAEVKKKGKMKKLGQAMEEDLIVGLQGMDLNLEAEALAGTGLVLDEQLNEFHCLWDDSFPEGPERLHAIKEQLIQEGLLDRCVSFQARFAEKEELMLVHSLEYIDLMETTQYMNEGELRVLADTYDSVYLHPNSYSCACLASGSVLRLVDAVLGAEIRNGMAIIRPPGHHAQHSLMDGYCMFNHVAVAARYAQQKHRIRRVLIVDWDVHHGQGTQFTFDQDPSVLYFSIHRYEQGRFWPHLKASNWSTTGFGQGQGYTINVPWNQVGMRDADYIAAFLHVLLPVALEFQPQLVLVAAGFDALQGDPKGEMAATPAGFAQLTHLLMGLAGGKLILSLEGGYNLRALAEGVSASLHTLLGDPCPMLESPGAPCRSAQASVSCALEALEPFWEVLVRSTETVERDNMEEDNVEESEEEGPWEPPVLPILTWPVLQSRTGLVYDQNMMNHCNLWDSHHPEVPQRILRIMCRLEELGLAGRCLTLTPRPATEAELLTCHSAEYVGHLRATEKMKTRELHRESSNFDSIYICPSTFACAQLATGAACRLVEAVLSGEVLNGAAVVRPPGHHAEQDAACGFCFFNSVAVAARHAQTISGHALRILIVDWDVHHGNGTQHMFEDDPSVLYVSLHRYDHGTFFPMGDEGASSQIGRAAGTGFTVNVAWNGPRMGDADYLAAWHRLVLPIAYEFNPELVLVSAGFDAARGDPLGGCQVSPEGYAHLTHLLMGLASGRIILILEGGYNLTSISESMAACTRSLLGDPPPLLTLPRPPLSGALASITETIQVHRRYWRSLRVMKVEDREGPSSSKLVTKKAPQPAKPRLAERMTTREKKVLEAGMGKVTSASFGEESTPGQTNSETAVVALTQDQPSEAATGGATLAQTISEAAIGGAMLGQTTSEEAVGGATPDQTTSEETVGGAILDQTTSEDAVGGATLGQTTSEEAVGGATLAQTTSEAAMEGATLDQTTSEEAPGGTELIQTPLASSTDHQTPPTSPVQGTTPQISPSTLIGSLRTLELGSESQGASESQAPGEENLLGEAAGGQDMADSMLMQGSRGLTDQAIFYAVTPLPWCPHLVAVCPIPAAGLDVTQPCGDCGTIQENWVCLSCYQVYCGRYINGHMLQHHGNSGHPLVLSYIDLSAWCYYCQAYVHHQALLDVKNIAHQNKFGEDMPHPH
Procedure, shortened: as §1

T1 sequence (Q13547 whole entry): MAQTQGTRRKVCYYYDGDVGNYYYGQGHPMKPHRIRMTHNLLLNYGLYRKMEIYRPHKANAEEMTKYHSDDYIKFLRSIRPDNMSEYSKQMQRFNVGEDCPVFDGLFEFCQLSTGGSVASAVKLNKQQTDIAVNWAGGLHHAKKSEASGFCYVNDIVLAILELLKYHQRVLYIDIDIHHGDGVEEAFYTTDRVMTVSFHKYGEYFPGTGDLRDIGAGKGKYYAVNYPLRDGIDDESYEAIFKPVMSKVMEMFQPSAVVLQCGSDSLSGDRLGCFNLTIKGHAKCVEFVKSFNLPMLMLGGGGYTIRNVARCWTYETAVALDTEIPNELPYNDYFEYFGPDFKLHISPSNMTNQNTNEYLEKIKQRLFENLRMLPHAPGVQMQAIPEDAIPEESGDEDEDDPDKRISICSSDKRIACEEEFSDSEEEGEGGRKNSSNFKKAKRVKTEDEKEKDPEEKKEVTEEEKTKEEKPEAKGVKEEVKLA

Compound | inhibition at 1 µM (HDAC1 enzyme) | inhibition at 1 µM (HDAC6 enzyme) | HDAC1 inhibitory rate (%) (1 μM) (HDAC1 enzyme) | HDAC6 inhibitory rate (%) (1 μM) (HDAC6 enzyme) | HDAC1 inhibitory rate (%) (1 μM) (HDAC1 enzyme; 1 µM)
O=C(NCC1COCCN1C(=O)c1ccccc1)c1ccc(-c2noc(C(F)(F)F)n2)s1 (stereo not shown) [Example 210, N-((4-benzoylmorpholin-3-yl)methyl)-5-(5-(trifluoromethyl)-1,2,4-oxadiazol-3-yl)thiophene-2-carboxamide] | 23% | 96% |  |  | 
O=C(NC[C@H]1COCCN1C(=O)C1(c2ccccc2)CC1)c1ccc(-c2noc(C(F)(F)F)n2)cn1 [Example 202, N-(((3S)-4-((1-phenylcyclopropyl)carbonyl)morpholin-3-yl)methyl)-5-(5-(trifluoromethyl)-1,2,4-oxadiazol-3-yl)pyridine-2-carboxamide] | 20% | 98% |  |  | 
Cc1ccc(C(=O)N2CCOCC2CNC(=O)c2ccc(-c3noc(C(F)(F)F)n3)cc2)cc1 (stereo not shown) [Example 11, N-((4-(4-methylbenzoyl)morpholin-3-yl)methyl)-4-(5-(trifluoromethyl)-1,2,4-oxadiazol-3-yl)benzamide] | 21% | 99% |  |  | 
Cc1cc(C(=O)N2CCOC[C@H]2CNC(=O)c2ccc(-c3noc(C(F)(F)F)n3)cc2)on1 [Example 134, N-(((3R)-4-((3-methyl-1,2-oxazol-5-yl)carbonyl)morpholin-3-yl)methyl)-4-(5-(trifluoromethyl)-1,2,4-oxadiazol-3-yl)benzamide] | 11% | 97% |  |  | 
O=C(NC[C@@H]1COCCN1C(=O)C1CCCCC1)c1ccc(-c2noc(C(F)(F)F)n2)s1 [Example 266, N-(((3R)-4-(cyclohexylcarbonyl)morpholin-3-yl)methyl)-5-(5-(trifluoromethyl)-1,2,4-oxadiazol-3-yl)thiophene-2-carboxamide] | 30% | 98% |  |  | 
O=C(NCC1COCCN1C(=O)C(F)(F)c1ccccc1)c1ccc(-c2noc(C(F)(F)F)n2)s1 (stereo not shown) [Example 246, N-((4-(difluoro(phenyl)acetyl)morpholin-3-yl)methyl)-5-(5-(trifluoromethyl)-1,2,4-oxadiazol-3-yl)thiophene-2-carboxamide] | 52% | 99% |  |  | 
O=C(NCC1COCCN1C(=O)C1CCOCC1)c1ccc(-c2noc(C(F)(F)F)n2)cc1 (stereo not shown) [Example 26, N-((4-(tetrahydro-2H-pyran-4-ylcarbonyl)morpholin-3-yl)methyl)-4-(5-(trifluoromethyl)-1,2,4-oxadiazol-3-yl)benzamide] | 10% | 95% |  |  | 
O=C(NCCO)c1cccc(C(=O)N2CCOC[C@@H]2CNC(=O)c2ccc(-c3noc(C(F)(F)F)n3)cc2)c1 [Example 271, N-(2-hydroxyethyl)-3-(((3S)-3-(((4-(5-(trifluoromethyl)-1,2,4-oxadiazol-3-yl)benzoyl)amino)methyl)morpholin-4-yl)carbonyl)benzamide] | 7% | 94% |  |  | 
O=C(NC[C@H]1COCCN1C(=O)C1CCCCC1)c1ccc(-c2noc(C(F)(F)F)n2)cc1 [Example 80, N-(((3S)-4-(cyclohexylcarbonyl)morpholin-3-yl)methyl)-4-(5-(trifluoromethyl)-1,2,4-oxadiazol-3-yl)benzamide] | 15% | 98% |  |  | 
O=C(NC[C@H]1COCCN1C(=O)c1cc(F)c(F)c(F)c1)c1ccc(-c2noc(C(F)(F)F)n2)cc1 [Example 47, N-(((3S)-4-(3,4,5-trifluorobenzoyl)morpholin-3-yl)methyl)-4-(5-(trifluoromethyl)-1,2,4-oxadiazol-3-yl)benzamide] |  |  | 11% | 102% | 
O=C(NCC1COCCN1C(=O)c1cccs1)c1ccc(-c2noc(C(F)(F)F)n2)cc1 (stereo not shown) [Example 15, N-((4-(2-thienylcarbonyl)morpholin-3-yl)methyl)-4-(5-(trifluoromethyl)-1,2,4-oxadiazol-3-yl)benzamide] | 20% | 98% |  |  | 
O=C(NC[C@H]1COCCN1C(=O)c1cc(Cl)cc(Cl)c1)c1ccc(-c2noc(C(F)(F)F)n2)cc1 [Example 37, N-(((3S)-4-(3,5-dichlorobenzoyl)morpholin-3-yl)methyl)-4-(5-(trifluoromethyl)-1,2,4-oxadiazol-3-yl)benzamide] |  |  |  | 98% | 27%
Cn1nccc1C(=O)N1CCOC[C@@H]1CNC(=O)c1ccc(-c2noc(C(F)(F)F)n2)cc1 [Example 38, N-(((3S)-4-((1-methyl-1H-pyrazol-5-yl)carbonyl)morpholin-3-yl)methyl)-4-(5-(trifluoromethyl)-1,2,4-oxadiazol-3-yl)benzamide] | 25% | 100% |  |  | 
O=C(NC[C@H]1COCCN1C(=O)c1ccno1)c1ccc(-c2noc(C(F)(F)F)n2)cc1 [Example 61, N-(((3S)-4-(1,2-oxazol-5-ylcarbonyl)morpholin-3-yl)methyl)-4-(5-(trrfluoromethyl)-1,2,4-oxadiazol-3-yl)benzamide] | 10% | 97% |  |  | 
O=C(NC[C@H]1COCCN1C(=O)c1cccc(-c2ccccc2)c1)c1ccc(-c2noc(C(F)(F)F)n2)s1 [Example 262, N-(((3S)-4-(biphenyl-3-ylcarbonyl)morpholin-3-yl)methyl)-5-(5-(trifluoromethyl)-1,2,4-oxadiazol-3-yl)thiophene-2-carboxamide] | 16% | 94% |  |  | 
CN(C(=O)N1CCOCC1CNC(=O)c1ccc(-c2noc(C(F)(F)F)n2)cc1)c1ccccc1 (stereo in doubt) [Example 98, (3S)-N-methyl-N-phenyl-3-(((4-(5-(trifluoromethyl)-1,2,4-oxadiazol-3-yl)benzoyl)amino)methyl)morpholine-4-carboxamide] | 15% | 98% |  |  | 
CN(C(=O)C[C@H]1COCCN1C(=O)c1ccccc1)c1ccc(-c2noc(C(F)(F)F)n2)cc1 [Example 161, 2-((3S)-4-benzoylmorpholin-3-yl)-N-methyl-N-(4-(5-(trifluoromethyl)-1,2,4-oxadiazol-3-yl)phenyl)acetamide] | 6% | 48% |  |  | 
O=C(NC[C@@H]1COCCN1C(=O)c1cc(Cl)cc(Cl)c1)c1ccc(-c2noc(C(F)(F)F)n2)cn1 [Example 209, N-(((3R)-4-(3,5-dichlorobenzoyl)morpholin-3-yl)methyl)-5-(5-(trifluoromethyl)-1,2,4-oxadiazol-3-yl)pyridine-2-carboxamide] | 21% | 95% |  |  | 
O=C(NCC1COCCN1C(=O)CCc1ccccc1)c1ccc(-c2noc(C(F)(F)F)n2)cc1 (stereo not shown) [Example 22, N-((4-(3-phenylpropanoyl)morpholin-3-yl)methyl)-4-(5-(trifluoromethyl)-1,2,4-oxadiazol-3-yl)benzamide] | 23% | 100% |  |  | 
O=C(NC[C@H]1COCCN1C(=O)N1CCCOC(CO)C1)c1ccc(-c2noc(C(F)(F)F)n2)cc1 (stereo partly drawn) [Example 291, N-(((3S)-4-((2-(hydroxymethyl)-1,4-oxazepan-4-yl)carbonyl)morpholin-3-yl)methyl)-4-(5-(trifluoromethyl)-1,2,4-oxadiazol-3-yl)benzamide] | 1% | 90% |  |  | 

Reference: patent US10081624B2, “Heterocyclic compound” (Takeda Pharmaceutical Company Limited, priority 2014, dated 2018)
